Measurements: patent publication US7994185B2, “Benzene sulfonamide thiazole and oxazole compounds” (Glaxo Smith Kline LLC, priority 2008, dated 2011)

Columns and labels:
GCT = test: 3 day proliferation assay, B-Raf V600E mutant cancer cell line; assay type: cell-based; details: Homo sapiens, Skin, BRAF V600E, read-out: Mean gIC50
A101D = test: as above; assay type: cell-based; details: Homo sapiens, Skin, BRAF V600E, read-out: Mean gIC50
SW872 = test: as above; assay type: cell-based; details: Homo sapiens; SW872, Connective tissue, BRAF V600E; read-out: Mean gIC50
RKO = test: as above; assay type: cell-based; details: Homo sapiens, Colon, BRAF V600E, read-out: Mean gIC50
COLO 205 = test: as above; assay type: cell-based; details: Homo sapiens; COLO 205, Colon, BRAF V600E; read-out: Mean gIC50
UACC-62 = test: as above; assay type: cell-based; details: Homo sapiens; UACC-62, Skin, BRAF V600E; read-out: Mean gIC50
A673 = test: as above; assay type: cell-based; details: Homo sapiens; A673, Muscle, BRAF V600E; read-out: Mean gIC50
A375P F11s [1] = test: Dose dependent tumor inhibition, A375P F11s xenograft; assay type: in vivo, athymic mice; design: key: −: indicates no response; +: indicates growth delay (1-2x doubling); ++: indicates growth delay (>2x doubling); +++: indicates stable disease; ++++: indicates partial regression; +++++: indicates complete regression; details: oral, 14-day period
Protocol: 1. […] Tumor cells (2×10^6 A375P F11s) were implanted subcutaneously into the right flank of athymic mice on Day 1. To facilitate their growth, A375P F11s cells were suspended in Matrigel diluted 1:1 in phosphate-buffered saline before implantation. When tumors had reached approximately 200 mm^3 in volume (Day 19-22), tumor-bearing mice were randomized into study groups (n=7 or 8). Animals were dosed orally once or twice daily for a 14-day period. […] Tumor growth was measured twice a week using calipers for the duration of the study. Tumor volumes were calculated as a product of (length×width×width)/2 and median values were used to compare groups. Complete regressions (CR) were defined as three consecutive tumor measurements of ≦13.5 mm^3. Partial regressions were defined as three consecutive measurements of ≦50% of starting tumor volume. Tumor growth delay was defined as the difference in time taken for treated and control groups to reach 1000 mm^3 (T-C1000).

MALME-3M = test: 3 day proliferation assay, B-Raf V600E mutant cancer cell line; assay type: cell-based; details: Homo sapiens, Skin, BRAF V600E, read-out: Mean gIC50
SW1417 = test: as above; assay type: cell-based; details: Homo sapiens; SW1417, Colon, BRAF V600E; read-out: Mean gIC50
SK-MEL-3 = test: as above; assay type: cell-based; details: Homo sapiens, SK-MEL3; SK-MEL-3, Skin, BRAF V600E; read-out: Mean gIC50
A375P F11s [2] = test: as above; assay type: cell-based; details: Skin, BRAF V600E, read-out: Mean gIC50
[3] = tested on: Human colon tumor cells (Colo205); test: Cell growth inhibition assay (CellTiter-Glo), Colo205; assay type: cell-based; details: COLO 205, Table 2b, later runs, average for the one or more runs, categorized, read-out: IC50 for Colo205
Method in brief: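 Luminescent ATP read-out (CellTiter-Glo) served as a proxy for cell number; percent growth inhibition was calculated against DMSO vehicle wells. Cells were treated for 3 days at 37 °C with serially diluted compound, 0.2% DMSO final.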

UACC-257 = test: 3 day proliferation assay, B-Raf V600E mutant cancer cell line; assay type: cell-based; details: Homo sapiens; UACC-257, Skin, BRAF V600E; read-out: Mean gIC50
SK-MEL-1 = test: as above; assay type: cell-based; details: Homo sapiens; SK-MEL-1, Skin, BRAF V600E; read-out: Mean gIC50
ES-2 = test: as above; assay type: cell-based; details: Homo sapiens; ES-2, Ovary, BRAF V600E; read-out: Mean gIC50
DU4475 = test: as above; assay type: cell-based; details: Homo sapiens, DU-4475; DU4475, Breast, BRAF V600E; read-out: Mean gIC50
[4] = tested on: cancer cell lines encoding B-Raf V600E mutation; test: 3 day proliferation assay, panel of 22 mutant cancer cell lines; assay type: cell-based; details: number of cell lines of the panel
WM115 = test: 3 day proliferation assay, B-Raf V600E mutant cancer cell line; assay type: cell-based; details: Homo sapiens, WM-115, WM115, Skin, BRAF V600D, read-out: Mean gIC50
NCI-H292 = test: as above; assay type: cell-based; details: Homo sapiens, NCI-H292, Lung, BRAF T119S, read-out: Mean gIC50
SH-4 = test: as above; assay type: cell-based; details: Homo sapiens; SH-4, Skin, BRAF V600E; read-out: Mean gIC50
[5] = tested on: Human melanoma cancer cells (SK-MEL-28); test: Cell growth inhibition assay (CellTiter-Glo), SK-MEL-28; assay type: cell-based; details: SK-MEL-28, Table 3b, later runs, average for the one or more runs, categorized, read-out: IC50 for SK-MEL-28
UCLA-SO-M14 = test: 3 day proliferation assay, B-Raf V600E mutant cancer cell line; assay type: cell-based; details: UCLA-SO-M14, Skin, BRAF V600E; read-out: Mean gIC50
HT-29 = test: as above; assay type: cell-based; details: Homo sapiens, HT-29, Colon, BRAF T119S, read-out: Mean gIC50
SK-MEL-28 = test: as above; assay type: cell-based; details: Homo sapiens; SK-MEL-28, Skin, BRAF V600E; read-out: Mean gIC50
C32TG = test: as above; assay type: cell-based; details: Skin, BRAF V600E, read-out: Mean gIC50

## CC(C)(C)c1nc(-c2cccc(NS(=O)(=O)c3c(F)cccc3F)c2F)c(-c2ccnc(N)n2)s1 [Example 58a, N-{3-[5-(2-Amino-4-pyrimidinyl)-2-(1,1-dimethylethyl)-1,3-thiazol-4-yl]-2-fluorophenyl}-2,6-difluorobenzenesulfonamide]
GCT
  IC50: ≥ 1000 nM
A101D
  IC50: < 100 nM
SW872
  IC50: 100 to 1000 nM
RKO
  IC50: ≥ 1000 nM
COLO 205
  IC50: < 100 nM
UACC-62
  IC50: < 100 nM
A673
  IC50: ≥ 1000 nM
A375P F11s [1]; 0.1 mg/kg qd
  Response: −
A375P F11s [1]; 1 mg/kg qd
  Response: + (indicates growth delay (1-2x doubling))
MALME-3M
  IC50: < 100 nM
SW1417
  IC50: 100 to 1000 nM
SK-MEL-3
  IC50: < 100 nM
A375P F11s [2]
  IC50: < 100 nM
[3]
  IC50: < 100 nM
UACC-257
  IC50: < 100 nM
SK-MEL-1
  IC50: < 100 nM
ES-2
  IC50: < 100 nM
DU4475
  IC50: < 100 nM
[4]
  cancer cell lines encoding B-Raf V600E sensitive with gIC50<100 nM: 16 out of 22
  cancer cell lines not sensitive (gIC50>1000M): 4 out of 22
  cancer cell lines with intermediate response (gIC50≧100 nM and <1000 nM): 2 out of 22
WM115
  IC50: < 100 nM
NCI-H292
  IC50: ≥ 1000 nM
SH-4
  IC50: < 100 nM
[5]
  IC50: < 100 nM
UCLA-SO-M14
  IC50: < 100 nM
HT-29
  IC50: < 100 nM
SK-MEL-28
  IC50: < 100 nM
C32TG
  IC50: < 100 nM
